Measurements: patent US11505553B2, “2-(Het)aryl-substituted fused heterocycle derivatives as pesticides” (Bayer Aktiengesellschaft, priority 2017, dated 2022)

Columns and labels:
Assay type in all cases: in vivo
[1] = test system: Ctenocephalides felis; experiment: Ctenocephalides felis in vitro contact test with adult cat fleas; conditions: application rate 5 μg/cm^2 (=500 g/ha), after 48 h, adult cat fleas dead or moribund, read-out: efficacy
Procedure: For the coating of the test tubes, 9 mg of active ingredient are first dissolved in 1 ml of acetone p.a. and then diluted to the desired concentration with acetone p.a. 250 μl of the solution are distributed homogeneously on the inner walls and the base of a 25 ml glass tube by turning and rocking on an orbital shaker (rocking rotation at 30 rpm for 2 h). With 900 ppm of active ingredient solution and internal surface area 44.7 cm^2, given homogeneous distribution, an area-based dose of 5 μg/cm^2 is achieved. After the solvent has evaporated off, the tubes are populated with 5-10 adult cat fleas (Ctenocephalides felis), sealed with a perforated plastic lid and incubated in a horizontal position at room temperature and ambient humidity. After 48 h, efficacy is determined. To this end, the tubes are stood upright and the fleas are knocked to the base of the tube. Fleas which remain motionless at the base or move in an uncoordinated manner are considered to be dead or moribund. […] 100% efficacy means that all the fleas were dead or moribund. 0% efficacy means that no fleas were harmed.

[2] = test system: Ctenocephalides felis; experiment: Ctenocephalides felis oral test; conditions: 48 h, application rate 100 ppm in citrated cattle blood, after 2 days, read-out: efficacy (kill)
Procedure: Solvent: dimethyl sulfoxide To produce a suitable active ingredient formulation, 10 mg of active ingredient are mixed with 0.5 ml of dimethyl sulfoxide. Dilution with citrated cattle blood gives the desired concentration. About 20 unfed adult cat fleas (Ctenocephalides felis) are placed into a chamber which is closed at the top and bottom with gauze. A metal cylinder whose bottom end is closed with parafilm is placed onto the chamber. The cylinder contains the blood/active ingredient formulation, which can be imbibed by the fleas through the parafilm membrane. After 2 days, the kill in % is determined. 100% means that all of the fleas have been killed; 0% means that none of the fleas have been killed.

[3] = test system: Lucilia cuprina; experiment: Lucilia cuprina test; conditions: 48 h, application rate 100 ppm, L1 larvae, after 2 days, read-out: efficacy (kill)
Procedure: Solvent: dimethyl sulfoxide To produce a suitable active ingredient formulation, 10 mg of active ingredient are mixed with 0.5 ml of dimethyl sulfoxide, and the concentrate is diluted with water to the desired concentration. About 20 L1 larvae of the Australian sheep blowfly (Lucilia cuprina) are transferred into a test vessel containing minced horsemeat and the active ingredient formulation of the desired concentration. After 2 days, the kill in % is determined. 100% means that all the larvae have been killed; 0% means that no larvae have been killed.

[4] = test system: Meloidogyne incognita; experiment: Meloidogyne incognita test; conditions: 336 h, application rate 20 ppm, formation of galls on lettuce after 14 days, read-out: nematicidal efficacy
Procedure: Solvent: 125.0 parts by weight of acetone To produce a suitable active ingredient formulation, 1 part by weight of active ingredient is mixed with the stated amount of solvent and the concentrate is diluted to the desired concentration with water. Vessels are filled with sand, active ingredient solution, an egg/larvae suspension of the southern root-knot nematode (Meloidogyne incognita) and lettuce seeds. The lettuce seeds germinate and the plants develop. The galls develop on the roots. After 14 days, the nematicidal efficacy in % is determined by the formation of galls. 100% means that no galls were found; 0% means that the number of galls on the treated plants corresponds to the untreated control.

[5] = test system: Myzus persicae; experiment: Myzus persicae oral test; conditions: 120 h, after 5 days, read-out: efficacy; for pest or weed control at 0.8 ppm: application rate 0.8 ppm; for pest or weed control at 4 ppm: application rate 4 ppm
Procedure: Solvent: 100 parts by weight of acetone To produce a suitable active ingredient formulation, 1 part by weight of active ingredient is dissolved with the stated parts by weight of solvent and made up to the desired concentration with water. 50 μl of the active ingredient preparation are transferred into microtitre plates and made up to a final volume of 200 μl with 150 μl of IPL41 insect medium (33%+15% sugar). Subsequently, the plates are sealed with parafilm, which a mixed population of green peach aphids (Myzus persicae) within a second microtitre plate is able to puncture and imbibe the solution. After 5 days, the efficacy in % is determined. 100% means that all the aphids have been killed; 0% means that no aphids have been killed.

[6] = test system: Myzus persicae; experiment: Myzus persicae spray test; conditions: foliar, 120 h, Chinese cabbage leaf discs, after 5 days, read-out: efficacy; for pest or weed control at 20 g/ha: application rate 20 g/ha; for pest or weed control at 100 g/ha: application rate 100 g/ha
Procedure: (§1) Solvent: 78 parts by weight of acetone • • 1.5 parts by weight of dimethylformamide Emulsifier: alkylaryl polyglycol ether To produce a suitable active ingredient formulation, 1 part by weight of active ingredient is dissolved with the specified parts by weight of solvent and made up to the desired concentration with water containing an emulsifier concentration of 1000 ppm. To produce further test concentrations, the formulation is diluted with emulsifier-containing water. Discs of Chinese cabbage leaves (Brassica pekinensis) infested by all stages of the green peach aphid (Myzus persicae) are sprayed with an active ingredient formulation of the desired concentration. After 5 days, the efficacy in % is determined. 100% means that all the aphids have been killed; 0% means that no aphids have been killed.

[7] = test system: Phaedon cochleariae; experiment: Phaedon cochleariae spray test; conditions: 168 h, application rate 100 g/ha, larvae, after 7 days, read-out: efficacy
Procedure: as §1, with “Solvent: 78.0” for “Solvent: 78”, “pekinensis)” for “pekinensis) infested by all stages of the green peach aphid (Myzus persicae)”, “desired concentration and, after drying, populated with larvae of the mustard beetle (Phaedon cochleariae).” for “desired concentration.”, “After 7” for “After 5”, “the beetle larvae” for “the aphids”, “no beetle larvae” for “no aphids”

[8] = test system: Phaedon cochleariae; experiment: Phaedon cochleariae spray test (PHAECO), contrastive examples; conditions: 168 h, 7 dat, read-out: % efficacy
Procedure: Solvent: 78.0 parts by weight of acetone • • 1.5 parts by weight of dimethylformamide Emulsifier: alkylaryl polyglycol ether To produce an appropriate active ingredient formulation, 1 part by weight of active ingredient is dissolved with the stated parts by weight of solvent and made up with water containing an emulsifier concentration of 1000 ppm until the desired concentration is attained. For production of further test concentrations, the mixture is diluted with emulsifier-containing water. Discs of chinese cabbage leaves (Brassica pekinensis) are sprayed with an active ingredient formulation of the desired concentration and, after drying, populated with larvae of the mustard beetle (Phaedon cochleariae). After the desired time, the efficacy in % is determined. 100% means that all beetle larvae have been killed; 0% means that no beetle larvae have been killed.

[9] = test system: Myzus persicae; experiment: Myzus persicae spray test (MYZUPE S), bell pepper plants; conditions: 144 h, 6 dat, read-out: % efficacy
Procedure: Solvent: 14 parts by weight of dimethylformamide Emulsifier: alkylaryl polyglycol ether To produce an appropriate active ingredient formulation, 1 part by weight of active ingredient is dissolved with the stated parts by weight of solvent and made up with water containing an emulsifier concentration of 1000 ppm until the desired concentration is attained. For production of further test concentrations, the mixture is diluted with emulsifier-containing water. If addition of ammonium salts or/and penetrants is required, these are each added to the preparation solution in a concentration of 1000 ppm. Bell pepper plants (Capsicum annuum) severely infested by the green peach aphid (Myzus persicae) are treated by spraying with the active ingredient formulation in the desired concentration. After the desired time, the kill in % is determined. 100% means that all animals have been killed; 0% means that no animals have been killed.

[10] = test system: Nilaparvata lugens; experiment: Nilaparvata lugens spray test (NILALU); conditions: 96 h, 4 dat, read-out: % efficacy
Procedure: Solvent: 52.5 parts by weight of acetone • 7 parts by weight of dimethylformamide
Emulsifier: alkylaryl polyglycol ether
To produce an appropriate active ingredient formulation, 1 part by weight of active ingredient is dissolved with the stated parts by weight of solvent and made up with water containing an emulsifier concentration of 1000 ppm until the desired concentration is attained. For production of further test concentrations, the mixture is diluted with emulsifier-containing water. If addition of ammonium salts or/and penetrants is required, these are each added to the preparation solution in a concentration of 1000 ppm.
Rice plants (Oryza sativa) are sprayed with an active ingredient formulation of the desired concentration and then populated with larvae of the rice cicada (Nilaparvata lugens).
After the desired time, the efficacy in % is determined. 100% means that all rice cicadas have been killed; 0% means that no rice cicadas have been killed.

[11] = test system: Myzus persicae; experiment: Myzus persicae spray test (MYZUPE), contrastive examples; conditions: 120 h, 5 dat, read-out: % efficacy
Procedure: as §1, with “78.0” for “78”, “chinese” for “Chinese”, “the desired time,” for “5 days,”, “all” for “all the”

[12] = test system: Boophilus microplus; experiment: Boophilus microplus injection test; conditions: application rate 20 μg/animal, laying of fertile eggs assessed after 7 days
Procedure: Solvent: dimethyl sulfoxide To produce a suitable active ingredient formulation, 10 mg of active ingredient are mixed with 0.5 ml of solvent and the concentrate is diluted to the desired concentration with solvent. 1 μl of the active ingredient solution is injected into the abdomen of 5 engorged adult female cattle ticks (Boophilus microplus). The animals are transferred into dishes and kept in a climate-controlled room. Efficacy is assessed after 7 days by laying of fertile eggs. Eggs which are not visibly fertile are stored in a climate-controlled cabinet until the larvae hatch after about 42 days. An efficacy of 100% means that none of the ticks has laid any fertile eggs; 0% means that all the eggs are fertile.

SMILES: CCS(=O)(=O)c1ccc(NC(=O)N(C)C)nc1-c1nc2cc(C(F)(F)F)nnc2n1C [Example I-2]
- pest or weed control at 5 µg/cm2, 500 g/ha [1]: 100%
- pest or weed control at 100 ppm [2]: 100%
- pest or weed control at 100 ppm [3]: 100%
- pest or weed control at 20 ppm [4]: 100%
- pest or weed control at 0.8 ppm [5]: 100%
- pest or weed control at 4 ppm [5]: 100%
- pest or weed control at 20 g/ha [6]: 100%
- pest or weed control at 100 g/ha [6]: 90%
- pest or weed control at 100 g/ha [7]: 100%
- Emax at 20 g/ha [8]: 83%
- Emax at 100 g/ha [8]: 100%
- Emax at 0.8 ppm [9]: 90%

SMILES: CCS(=O)(=O)c1ccc(N(C)C(=O)NC)nc1-c1nc2cc(C(F)(F)F)nnc2n1C [Example I-3]
- pest or weed control at 5 µg/cm2, 500 g/ha [1]: 100%
- pest or weed control at 100 ppm [2]: 100%
- pest or weed control at 100 ppm [3]: 90%
- pest or weed control at 20 ppm [4]: 100%
- pest or weed control at 0.8 ppm [5]: 100%
- pest or weed control at 4 ppm [5]: 100%
- pest or weed control at 20 g/ha [6]: 100%
- pest or weed control at 100 g/ha [7]: 100%
- Emax at 4 g/ha [10]: 70%

SMILES: CCS(=O)(=O)c1ccc(NC(=O)NC)nc1-c1nc2cc(C(F)(F)F)nnc2n1C [Example I-1, 1-{5-(ethylsulfonyl)-6-[7-methyl-3-(trifluoromethyl)-7H-imidazo[4,5-c]pyridazin-6-yl]pyridin-2-yl}-3-methylurea]
- pest or weed control at 5 µg/cm2, 500 g/ha [1]: 100%
- pest or weed control at 100 ppm [2]: 100%
- pest or weed control at 100 ppm [3]: 100%
- pest or weed control at 20 ppm [4]: 100%
- pest or weed control at 0.8 ppm [5]: 90%
- pest or weed control at 4 ppm [5]: 100%
- pest or weed control at 20 g/ha [6]: 90%
- pest or weed control at 100 g/ha [6]: 100%
- pest or weed control at 100 g/ha [7]: 100%
- Emax at 4 g/ha ([8]; 4 g/ha): 67%
- Emax at 20 g/ha [8]: 83%
- Emax at 100 g/ha [8]: 100%
- Emax at 4 g/ha [11]: 90%
- Emax at 0.8 ppm [9]: 70%

SMILES: CNC(=O)N(C)c1ccc(S(C)(=O)=O)c(-c2nc3cc(C(F)(F)F)nnc3n2C)n1 [Example I-6]
- efficacy [12]: 80%
- pest or weed control at 100 ppm [2]: 100%
- pest or weed control at 0.8 ppm [5]: 100%
- pest or weed control at 4 ppm [5]: 100%
- pest or weed control at 100 g/ha [6]: 90%
- Emax at 0.8 ppm [9]: 85%
